Measurements from patent publication US20090253669A1, “Substituted Sulfonamide Compounds” (GRUENENTHAL GmbH, priority 2008, published 2009).

Columns and labels:
[1] = target: T1, human B1R receptor (hB1R) (Homo sapiens, UniProt P46663); test: FLIPR Ca2+ assay on hB1R-transfected CHO K1 cells, antagonistic action; format: cell-based; details: CHO-K1, 10 μM test substance; agonist Lys-Des-Arg9-bradykinin 0.5 nM; % of maximum achievable inhibition; read-out: hB1R [10 μM] % inhibition
T1 construct: host or cells: CHO K1 cells
T1 sequence (P46663 1-353): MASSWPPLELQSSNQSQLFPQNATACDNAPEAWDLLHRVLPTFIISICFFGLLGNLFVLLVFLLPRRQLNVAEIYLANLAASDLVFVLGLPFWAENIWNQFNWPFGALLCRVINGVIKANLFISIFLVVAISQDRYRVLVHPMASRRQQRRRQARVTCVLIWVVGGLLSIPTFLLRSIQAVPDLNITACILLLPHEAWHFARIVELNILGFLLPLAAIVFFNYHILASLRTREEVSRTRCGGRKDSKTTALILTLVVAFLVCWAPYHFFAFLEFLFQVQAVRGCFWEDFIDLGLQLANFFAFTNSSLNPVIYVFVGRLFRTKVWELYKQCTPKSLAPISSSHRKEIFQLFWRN

[2] = target: T2, B1R receptor of the rat (rB1R) (Rattus norvegicus, UniProt P97583); test: FLIPR Ca2+ assay on rB1R-transfected CHO K1 cells, antagonistic action; format: cell-based; details: CHO-K1, 10 μM test substance; agonist Des-Arg9-bradykinin 100 nM; % of maximum achievable inhibition; read-out: rB1R [10 μM] % inhibition
T2 construct: host or cells: CHO K1 cells
T2 sequence (P97583 1-337): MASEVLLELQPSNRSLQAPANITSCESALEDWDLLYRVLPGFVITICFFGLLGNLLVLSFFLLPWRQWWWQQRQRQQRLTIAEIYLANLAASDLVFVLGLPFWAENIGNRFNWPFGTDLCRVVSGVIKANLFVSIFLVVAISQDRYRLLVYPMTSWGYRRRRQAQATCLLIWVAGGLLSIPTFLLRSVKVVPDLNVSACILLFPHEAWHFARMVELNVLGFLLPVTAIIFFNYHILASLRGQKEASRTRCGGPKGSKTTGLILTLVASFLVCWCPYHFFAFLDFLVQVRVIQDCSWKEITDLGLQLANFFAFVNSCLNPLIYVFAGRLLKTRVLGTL

CN(CCCC1CCC(c2ccccc2)(N2CCCC2)CC1)C(=O)COCC1CCc2ccccc2N1S(=O)(=O)c1ccc(Cl)c(Cl)c1 (stereo not shown) [Compound 133, 2-((1-(3,4-dichlorophenylsulfonyl)-1,2,3,4-tetrahydroquinolin-2-yl)methoxy)-N-methyl-N-(3-(4-phenyl-4-(pyrrolidin-1-yl)cyclohexyl)propyl)acetamide]
inhibition at 10 µM [1]: 92% | inhibition at 10 µM [2]: 42%

CN1CCN(C2(Cc3ccccc3)CCC(CN(C)C(=O)COCCN(C)S(=O)(=O)c3c(Cl)cc(Cl)cc3Cl)CC2)CC1 (stereo not shown) [Compound 186, N-((4-benzyl-4-(4-methylpiperazin-1-yl)cyclohexyl)methyl)-N-methyl-2-(2-(2,4,6-trichloro-N-methylphenylsulfonamido)ethoxy)acetamide]
inhibition at 10 µM [1]: 97% | inhibition at 10 µM [2]: 64%

Cc1cc(S(=O)(=O)N2CCCCC2CCC(=O)N2CCC(Cc3ccccc3)(N3CCN(C)CC3)CC2)c(C)cc1Cl (stereo not shown) [Compound 130, 1-(4-benzyl-4-(4-methylpiperazin-1-yl)piperidin-1-yl)-3-(1-(4-chloro-2,5-dimethylphenylsulfonyl)piperidin-2-yl)propan-1-one]
inhibition at 10 µM [1]: 102% | inhibition at 10 µM [2]: 49%

COc1cc(C)c(S(=O)(=O)N2CCC(OCC(=O)NCC3CCC(c4ccccc4)(N4CCOCC4)CC3)C2)c(C)c1 (stereo not shown) [Compound 173, 2-(1-(4-methoxy-2,6-dimethylphenylsulfonyl)pyrrolidin-3-yloxy)-N-((4-morpholino-4-phenylcyclohexyl)methyl)acetamide]
inhibition at 10 µM [1]: 64% | inhibition at 10 µM [2]: 78%

CN1CCN(C2(CCc3ccccc3)CCN(C(=O)CC3CCCCN3S(=O)(=O)c3cccc(C(F)(F)F)c3)CC2)CC1 (stereo not shown) [Compound 119, 1-(4-(4-methylpiperazin-1-yl)-4-phenethylpiperidin-1-yl)-2-(1-(3-(trifluoromethyl)phenylsulfonyl)piperidin-2-yl)ethanone]
inhibition at 10 µM [1]: 90% | inhibition at 10 µM [2]: 69%

O=C(CC1c2ccccc2CCN1S(=O)(=O)c1ccc(Cl)c(Cl)c1)NC1CCC(Cc2ccccc2)(N2CCCCC2)CC1 (stereo not shown) [Compound 15, N-(4-benzyl-4-(piperidin-1-yl)cyclohexyl)-2-(2-(3,4-dichlorophenylsulfonyl)-1,2,3,4-tetrahydroisoquinolin-1-yl)acetamide]
inhibition at 10 µM [1]: 55% | inhibition at 10 µM [2]: 82%

COc1cc(C)c(S(=O)(=O)N(C)CCOCC(=O)NC2CCC(Cc3ccccc3)(N3CCCC3)CC2)c(C)c1 (stereo not shown) [Compound 170, N-(4-benzyl-4-(pyrrolidin-1-yl)cyclohexyl)-2-(2-(4-methoxy-N,2,6-trimethylphenylsulfonamido)ethoxy)acetamide]
inhibition at 10 µM [1]: 104% | inhibition at 10 µM [2]: 84%

COc1cc(C)c(S(=O)(=O)N(C)CCOCC(=O)NC2CCC(CCc3ccccc3)(N(C)C)CC2)c(C)c1 (stereo not shown) [Compound 7, N-(4-(dimethylamino)-4-phenethylcyclohexyl)-2-(2-(4-methoxy-N,2,6-trimethylphenylsulfonamido)ethoxy)acetamide]
inhibition at 10 µM [1]: 103% | inhibition at 10 µM [2]: 100%

CN(C)C1(Cc2ccccc2)CCN(C(=O)CC2CCCCN2S(=O)(=O)c2cccc(C(F)(F)F)c2)CC1 (stereo not shown) [Compound 97, 1-(4-benzyl-4-(dimethylamino)piperidin-1-yl)-2-(1-(3-(trifluoromethyl)phenylsulfonyl)piperidin-2-yl)ethanone]
inhibition at 10 µM [1]: 102% | inhibition at 10 µM [2]: 91%

COc1cc(C)c(S(=O)(=O)N(C)CCOCC(=O)NCC2CCC(Cc3ccccc3)(N3CCOCC3)CC2)c(C)c1 (stereo not shown) [Compound 188, N-((4-benzyl-4-morpholinocyclohexyl)methyl)-2-(2-(4-methoxy-N,2,6-trimethylphenylsulfonamido)ethoxy)acetamide]
inhibition at 10 µM [1]: 95% | inhibition at 10 µM [2]: 63%

CN1CCN(C2(c3cccc(F)c3)CCN(C(=O)CCCC3CCCCN3S(=O)(=O)c3ccc4ccccc4c3)CC2)CC1 (stereo not shown) [Compound 216, 1-(4-(3-Fluorophenyl)-4-(4-methylpiperazin-1-yl)piperidin-1-yl)-4-(1-(naphthalen-2-ylsulfonyl)piperidin-2-yl)butan-1-one]
inhibition at 10 µM [1]: 100% | inhibition at 10 µM [2]: 95%

CN(CCC1CCC(c2ccccc2)(N2CCCC2)CC1)C(=O)CC1CCCCN1S(=O)(=O)c1cccc(C(F)(F)F)c1 (stereo not shown) [Compound 106, N-methyl-N-(2-(4-phenyl-4-(pyrrolidin-1-yl)cyclohexyl)ethyl)-2-(1-(3-(trifluoromethyl)phenylsulfonyl)piperidin-2-yl)acetamide]
inhibition at 10 µM [1]: 101% | inhibition at 10 µM [2]: 79%

COc1cc(C)c(S(=O)(=O)N(C)CCOCC(=O)N(C)CCC2CCC(CCc3ccccc3)(N(C)C)CC2)c(C)c1 (stereo not shown) [Compound 52, N-(2-(4-(dimethylamino)-4-phenethylcyclohexyl)ethyl)-2-(2-(4-methoxy-N,2,6-trimethylphenylsulfonamido)ethoxy)-N-methylacetamide]
inhibition at 10 µM [1]: 104% | inhibition at 10 µM [2]: 100%

COc1cc(C)c(S(=O)(=O)N2CCC(OCC(=O)NC3CCC(CCc4ccccc4)(N(C)C)CC3)C2)c(C)c1 (stereo not shown) [Compound 5, N-(4-(dimethylamino)-4-phenethylcyclohexyl)-2-(1-(4-methoxy-2,6-dimethylphenylsulfonyl)pyrrolidin-3-yloxy)acetamide]
inhibition at 10 µM [1]: 104% | inhibition at 10 µM [2]: 100%

COc1cc(C)c(S(=O)(=O)N2CCCCC2COCC(=O)N2CCC(CCc3ccccc3)(N(C)C)CC2)c(C)c1 (stereo not shown) [Compound 50, 1-(4-(dimethylamino)-4-phenethylpiperidin-1-yl)-2-((1-(4-methoxy-2,6-dimethylphenylsulfonyl)piperidin-2-yl)methoxy)ethanone]
inhibition at 10 µM [1]: 102% | inhibition at 10 µM [2]: 100%

COc1cc(C)c(S(=O)(=O)N2CCC(OCC(=O)NC3CCC(Cc4ccccc4)(N4CCCC4)CC3)C2)c(C)c1 (stereo not shown) [Compound 166, N-(4-benzyl-4-(pyrrolidin-1-yl)cyclohexyl)-2-(1-(4-methoxy-2,6-dimethylphenylsulfonyl)pyrrolidin-3-yloxy)acetamide]
inhibition at 10 µM [1]: 92% | inhibition at 10 µM [2]: 90%

CN(CCC1CCC(c2ccccc2)(N(C)C)CC1)C(=O)COCC1CCc2ccccc2N1S(=O)(=O)c1ccc(Cl)c(Cl)c1 (stereo not shown) [Compound 111, 2-((1-(3,4-dichlorophenylsulfonyl)-1,2,3,4-tetrahydroquinolin-2-yl)methoxy)-N-(2-(4-(dimethylamino)-4-phenylcyclohexyl)ethyl)-N-methylacetamide]
inhibition at 10 µM [1]: 80% | inhibition at 10 µM [2]: 78%

COc1cc(C)c(S(=O)(=O)N2CCCCC2COCC(=O)N2CCC(Cc3ccccc3)(N(C)C)CC2)c(C)c1 (stereo not shown) [Compound 65, 1-(4-benzyl-4-(dimethylamino)piperidin-1-yl)-2-((1-(4-methoxy-2,6-dimethylphenylsulfonyl)piperidin-2-yl)methoxy)ethanone]
inhibition at 10 µM [1]: 104% | inhibition at 10 µM [2]: 100%

COc1cc(C)c(S(=O)(=O)N2CCCCC2COCC(=O)N2CCC(c3ccccc3)(N(C)C)CC2)c(C)c1 (stereo not shown) [Compound 202, 1-(4-(dimethylamino)-4-phenylpiperidin-1-yl)-2-((1-(4-methoxy-2,6-dimethylphenylsulfonyl)piperidin-2-yl)methoxy)ethanone]
inhibition at 10 µM [1]: 100% | inhibition at 10 µM [2]: 103%

CN(CC1CCC(c2ccccc2)(N2CCCC2)CC1)C(=O)CC1CCCCN1S(=O)(=O)c1cccc(C(F)(F)F)c1 (stereo not shown) [Compound 33, N-methyl-N-((4-phenyl-4-(pyrrolidin-1-yl)cyclohexyl)methyl)-2-(1-(3-(trifluoromethyl)phenylsulfonyl)piperidin-2-yl)acetamide]
inhibition at 10 µM [1]: 94% | inhibition at 10 µM [2]: 101%

COc1cc(C)c(S(=O)(=O)N2c3ccccc3OCC2COCC(=O)N2CCC(c3cccc(F)c3)(N3CCN(C)CC3)CC2)c(C)c1 (stereo not shown) [Compound 221, 1-(4-(3-Fluorophenyl)-4-(4-methylpiperazin-1-yl)piperidin-1-yl)-2-((4-(4-methoxy-2,6-dimethylphenylsulfonyl)-3,4-dihydro-2H-benzo[b][1,4]oxazin-3-yl)methoxy)ethanone]
inhibition at 10 µM [1]: 99% | inhibition at 10 µM [2]: 99%

COc1cc(C)c(S(=O)(=O)N(C)CCOCC(=O)NC2CCC(c3ccccc3)(N3CCCC3)CC2)c(C)c1 (stereo not shown) [Compound 150, 2-(2-(4-methoxy-N,2,6-trimethylphenylsulfonamido)ethoxy)-N-(4-phenyl-4-(pyrrolidin-1-yl)cyclohexyl)acetamide]
inhibition at 10 µM [1]: 102% | inhibition at 10 µM [2]: 104%

COc1cc(C)c(S(=O)(=O)N2CCCCC2COCC(=O)N(C)CCCC2CCC(CCc3ccccc3)(N3CCCC3)CC2)c(C)c1 (stereo not shown) [Compound 59, 2-((1-(4-methoxy-2,6-dimethylphenylsulfonyl)piperidin-2-yl)methoxy)-N-methyl-N-(3-(4-phenethyl-4-(pyrrolidin-1-yl)cyclohexyl)propyl)acetamide]
inhibition at 10 µM [1]: 101% | inhibition at 10 µM [2]: 100%
